Source: publication PMC5701182, “The Aβ oligomer eliminating D-enantiomeric peptide RD2 improves cognition without changing plaque pathology” (Scientific Reports, 2017)
Non-standard residues stand in square brackets, D forms with d. Residues, ends and D or L forms follow the SMILES beside them.

Assays:
APP/PS1 mice [1] = assay: Zero maze; assay type: in vivo, mouse; details: APP/PS1 mice after three weeks of 5.3 mg/kg/day RD2 i.p., mean ± SEM, placebo 5.0 ± 0.6
Method: (§1) In this study, we treated seven months old female APP/PS1 mice intraperitoneally by use of Alzet osmotic minipumps (Alzet osmotic mini pumps, model #1004, Alzet, USA). Mice were either treated with 5.3 mg/kg/day RD2 (n = 11) or placebo (0.9% sodium chloride solution) (n = 10) as control group. The Alzet minipumps were soaked in sterile 0.9% sodium chloride solution for 24 h before implantation. The next day, the pumps were filled with the appropriate solution and implanted intraperitoneally. In short, mice were anesthetised with isoflurane, the skin and the muscle layer below were cut in the midline and the pump was inserted in the abdominal cavity. Following placement of the pump, the wound was sutured. Three weeks after the implantations, the mice were tested in different behavioural set ups. 28 days after the implantations, the mice were sacrificed for histopathological analysis. All mice of both groups were included in the experiments described below.
Similar to the open field test, the zero maze was used to assess the anxiety behaviour of the mice. The maze consisted of a circular arena (65 cm diameter) that is raised 40 cm above the table. The maze was separated into four equal parts, with two parts with 15 cm high walls of opaque material and two only 0.5 cm high walls. […] Analysed was the time mice spent in the open and closed arms. […]

APP/PS1 mice [2] = assay: Body weight and general health during intraperitoneal minipump treatment; assay type: in vivo, mouse; details: female APP/PS1 mice, 5.3 mg/kg/day RD2 i.p. by Alzet minipump
Method: For this study, 21 APP/PS1 double transgenic mice (APPSwedish/PS1ΔE9)[36] were used. The very well characterized APP/PS1 mouse model develops cognition deficits and abundant Aβ deposits already at early age. The original mice were purchased from JAX (The Jackson Laboratory, USA) and maintained in our own colony at the University of Alabama in Birmingham. Before treatment, the mice were housed in a controlled environment (humidity 50–60%, temperature 22 °C, light from 06:00 a.m. to 6:00 p.m.) with 4 animals per cage in our facility with food and water available ad libitum. After the implantation of the Alzet minipumps the mice were housed individually.
as §1, with “Three weeks after the implantations, the mice were tested in different behavioural set ups. 28 days after the implantations, the mice were sacrificed for histopathological analysis. All mice of both groups were included in the experiments described below.” left out

SH-SY5Y cells = assay: MTT cell viability assay, SH-SY5Y cells; assay type: cell-based, human; details: 5 µM RD2 without Aβ, one-way ANOVA n.s., p = 0.4
Method: (§2) MTT (3-(4,5-Dimethylthiazol-2-yl)-2,5-diphenyl-tetrazolium bromide) based cell viability assays were accomplished to examine the cytotoxicity of Aβ(1-42) in the presence of RD2 on two different cell lines, PC-12 (rat pheochromocytoma cell line), and SH-SY5Y (human neuroblastoma cell line) cells.
(§3) PC-12 cells (DSMZ, Germany) were cultured in DMEM medium supplemented with 10% fetal calf serum, 1% antibiotics (Penicillin/Streptomycin) (all Sigma-Aldrich, USA), and 5% horse serum (PAA Laboratories GmbH, Germany) on collagen A-coated (Biochrom GmbH, Germany) tissue culture flasks (SPL Life Sciences Co., Korea). SH-SY5Y cells (DSMZ, Germany) were cultured in DMEM medium supplemented with 20% fetal calf serum and 1% antibiotics (Penicillin/Streptomycin) (all Sigma-Aldrich, USA) on tissue culture flasks (SPL Life Sciences Co., Korea). Cells were allowed to grow in a humidified incubator with 5% CO2 at 37 °C and a maximum of 12 (PC-12 cells) or 21 (SH-SY5Y cells) passages. Medium was changed every two days and cells were passaged every three to five days, according to their confluence.
(§4) MTT test was performed according to the manufacturer’s protocol (CellProliferation Kit I; Roche, Switzerland). […] The arithmetic mean of all measurements per approach was calculated. Results are represented as the percentage of MTT reduction, assuming that the absorbance of control cells was 100%.

PC-12 cells = assay: MTT cell viability assay, PC-12 cells; assay type: cell-based, rat; details: 5 µM RD2 without Aβ, one-way ANOVA n.s., p = 0.4
Method: as §2, §3, §4

[3] = target: T1, Aβ(1-42) fibril formation (Homo sapiens, UniProt P05067); assay: Thioflavin T (ThT) fibril formation assay; assay type: biochemical; details: 20 µM Aβ(1-42), 5 µM ThT, RD2 80-1.25 µM, 21 h, 37 °C; logistic fit; three replicates; read-out: IC50 of inhibition of Aβ(1-42) fibril formation
T1 construct: Synthetic and recombinant Aβ(1-42) with >95% purity was purchased as lyophilized powder; purchased Bachem (Germany) (synthetic) / Isoloid (Germany) (recombinant)
T1 sequence (P05067 672-713 limits assumed): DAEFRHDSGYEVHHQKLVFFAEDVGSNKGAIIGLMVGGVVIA
Method: The Thioflavin T (ThT) assay is a commonly used assay to visualize and quantify the fibrilisation of Aβ, since this dye binds to amyloidogenic cross-β-sheet structures. While Aβ aggregates into fibrils, the ThT fluorescence intensities increase until a saturation level is accomplished. Within this test, we analysed the inhibitory function of RD2 on the Aβ(1-42) fibril formation. 20 µM Aβ(1-42) was incubated with 5 µM ThT and different concentrations of RD2 (serial dilution from 80 µM till 1.25 µM) for IC50 calculation. ThT fluorescence was monitored over 21 h every 5 min at λex = 440 nm and λem = 490 nm in a fluorescence plate reader (Polarstar Optima, Germany) at 37 °C. Correction was done using all supplements without Aβ. For data evaluation, the fibril masses were determined by subtracting the baseline fluorescence intensities from the top and normalised to the Aβ control to calculate the inhibition in percent. The IC50 resulted from the compound concentration at the inflection point obtained by a logistic fit of the data (OriginPro 8.5 G, OriginLab, USA).

Aβ(1-42) oligomers = target: T2, Aβ(1-42) oligomers (Homo sapiens, UniProt P05067); assay: QIAD assay (quantitative determination of interference with Aβ aggregate size distribution); assay type: biochemical
T2 construct: Synthetic and recombinant Aβ(1-42) with >95% purity was purchased as lyophilized powder; purchased Bachem (Germany) (synthetic) / Isoloid (Germany) (recombinant)
T2 sequence (P05067 672-713 limits assumed): as above
Method: For the evaluation of Aβ oligomer elimination of RD2, a QIAD assay (quantitative determination of interference with Aβ aggregate size distribution) was performed according to Brener et al.[23]. Briefly, 80 µM Aβ(1-42) was pre-incubated for 4.5 h to enrich Aβ oligomers. Then either RD2 or D3 were added to the pre-incubated solution with the resulting concentration of 20 µM RD2 or D3 and co-incubated for further 40 min. The samples were loaded on top of a density gradient containing 5 to 50% (w/v) iodixanol (OptiPrep, Axis-Shield, Norway) and centrifuged for 3 h at 4 °C and 259.000 × g (Optima TL-100, Beckman Coulter, USA). After centrifugation, 14 fractions à 140 μl were harvested by upward displacement. Fraction 1 from the top of the gradient was the least dense fraction while fraction 14 from just above the bottom was the densest fraction. The pellet of each tube was mixed with 60 µl of a 6 M guanidine hydrochloride solution and boiled for 10 min. The resulting solution represents fraction 15. All fractions were analysed with respect to their Aβ(1-42) content by analytical RP-HPLC (reversed phase-high performance liquid chromatography) and UV absorbance detection at 214 nm. The data for the D3 values and the Aβ(1-42) controls without compounds were already previously used in Brener et al.[23]. Analyses were done at least in quadruplicates (D3 and RD2 n = 4, Aβ(1-42) n = 11). […]

[4] = previous pharmacokinetic studies of D3 and RD2; cited from earlier work
From the text: Nowadays, the inhibition of the formation of Aβ oligomers and the elimination of already present Aβ oligomers is thought to be one of the most promising strategies to modify disease progression according to the modified amyloid cascade hypothesis. Currently registered drugs can only ameliorate symptoms and cannot slow down disease progression. Previously, we have reported about a D-enantiomeric peptide, named “D3”, which was identified by mirror image phage display and solely consists of D-enantiomeric amino acid residues[21],[22]. D3 inhibits the formation of regular Aβ fibrils, eliminates di ...

APP/PS1 mice [5] = assay: Open field test; assay type: in vivo, mouse; details: APP/PS1 mice after three weeks of 5.3 mg/kg/day RD2 i.p.
Method: as §1
The open field test was performed to evaluate the activity and anxiety behaviour of the mice. The arena (42 cm × 42 cm surrounded with clear Plexiglass sides (20 cm high)) was subdivided into two areas: border and centre. […] Time spent in both areas was analysed. After each testing day and in between the mice, the apparatus was wiped out with chlorhexidine and 70% ethanol and allowed to air-dry.

APP/PS1 mice [6] = assay: Morris water maze; assay type: in vivo, mouse; details: 5.3 mg/kg/day RD2 i.p., placebo 19.0 ± 1 cm/s
Method: as §1
The mice were tested daily for one week in a water maze. Our version of the Morris water maze consists of a blue circular tank (120 cm diameter) filled with clear water (22 °C ± 1 °C). […] Mice were recorded with a camera driven tracker system (Ethovision XT10, Noldus, The Netherlands). It was analysed the time the mice needed to escape to the hidden platform (escape latency) and the time they spent in the target quadrant (probe trial).

CC(C)C[C@@H](NC(=O)[C@H](NC(=O)[C@H]1CCCN1)[C@H](C)O)C(=O)N[C@H](Cc1c[nH]cn1)C(=O)N[C@@H](C(=O)N[C@H](Cc1c[nH]cn1)C(=O)N[C@H](CC(N)=O)C(=O)N[C@H](CCCNC(=N)N)C(=O)N[C@H](CCCNC(=N)N)C(=O)N[C@H](CCCNC(=N)N)C(=O)N[C@H](CCCNC(=N)N)C(=O)N[C@H](CCCNC(=N)N)C(N)=O)[C@H](C)O [RD2] (H-[dP][dT][dL][dH][dT][dH][dN][dR][dR][dR][dR][dR]-NH2)
average speed of movement in the zero maze (APP/PS1 mice [1]): 4.8 ± 0.4 cm/s
physiological parameters, general health and discomfort (APP/PS1 mice [2]; 28 days): neither changed any obvious physiological parameters
body weight (APP/PS1 mice [2]; n = 11, placebo 25.7 ± 0.9 g, mean ± SEM, SEM): 26.8 ± 0.8 g
cell viability with RD2 alone compared to buffer control (SH-SY5Y cells): did not result in any change of cell viability
cell viability with RD2 alone compared to buffer control (PC-12 cells): did not result in any change of cell viability
IC50 [3]: 7.7 µM
reduction of the amount of Aβ oligomers in fractions 4 to 6 (Aβ(1-42) oligomers; 20 µM RD2 added to 80 µM Aβ(1-42) pre-incubated 4.5 h, co-incubated 40 min, density gradient centrifugation, RP-HPLC UV 214 nm, n = 4): 71%
IC50 (Aβ(1-42) oligomers; QIAD with pooled fractions 4 to 6, 1-40 µM RD2 on 80 µM Aβ(1-42), logistic fit, n = 3, read-out: IC50 of Aβ(1-42) oligomer elimination): 8.4 µM
bioavailability of RD2 compared to D3 [4]: higher bioavailability
speed in the open field (APP/PS1 mice [5]; mean ± SEM, placebo 8.9 ± 0.9 cm/s, SEM): 8.8 ± 0.7 cm/s
activity or anxiety levels versus placebo (APP/PS1 mice [5]; open field and zero maze tests): no significant differences in activity or anxiety levels
swimming speed in the Morris water maze (APP/PS1 mice [6]): 18.8 ± 1 cm/s
